# Assay results taken from publication PMC8747035, “Design, Synthesis, and Biological Evaluation of 5,6,7,8-Tetrahydrobenzo[4,5]thieno[2,3-d]pyrimidines as Microtubule Targeting Agents” (Molecules, 2022).
# Legend:
# SK-OV-3 cells = test: SRB assay in SK-OV-3 cells; format: cell-based; settings: Homo sapiens, read-out: IC50 ± SD in SK-OV-3 Cells
# Protocol: Comparison of the IC50 values in the parental SK-OV-3 and genetically manipulated SK-OV-3 MDR1-M6/6 cell line allows for the calculation of a relative resistance value, designated Rr. This value is calculated by dividing the IC50 value obtained in the Pgp-expressing SK-OV-3 MDR1-M6/6 cells by the IC50 obtained in the parental SK-OV-3 cells.
# The antiproliferative and cytotoxic effects of the compounds in cancer cells were evaluated using the SRB assay as previously described. MDA-MB-435 cells were obtained from the Lombardi Cancer Center of Georgetown University (Washington, DC, USA). SK-OV-3 and HeLa cells were purchased from ATCC. Details about the generation of the SK-OV-3 MDR1-M6/6 and HeLa WTβIII cells were described previously. The IC50 values represent an average of three independent experiments, each conducted using triplicate points.
# HeLa, A-10, SK-OV-3, and SK-OV-3 MDR1-M6/6 cells were grown in Basal Medium Eagle (Sigma-Aldrich, St. Louis, MO, USA) supplemented with 10% FBS (Hyclone, GE Life Sciences, Logan, UT, USA) 1% GlutaMAX (Gibco, Life Technologies, Waltham, MA, USA) and 50 µg/mL gentamycin (Life Technologies, USA). HeLa WTβIII cells were grown in Dulbecco’s Modified Eagle Medium (Life Technologies) supplemented with 10% FBS and 50 µg/mL gentamycin. MDA-MB-435 cells were maintained in Improved Minimum Essential Medium (Life Technologies) supplemented with 10% FBS and 25 µg/mL gentamycin. All cells were grown at 37 °C in a humidified environment with 5% CO2.
# [1] = tested on: NCI-60 cancer cell line panel; test: NCI-60 cancer cell line panel (overall); format: cell-based; settings: Homo sapiens; 40 most sensitive of the 60 cancer cell lines
# Description: (§1) Compound 4 had better potency than the lead compound 1 in 50 cancer cell lines. (better by 5 to 6-fold in leukemia, 2 to 17-fold in NSCLC, 2 to 6-fold in colon cancer, 2 to 5-fold in CNS cancer, 2 to 25-fold in melanoma, 2 to 5-fold in ovarian cancer, 2 to 9-fold in renal cancer, 2 to 5-fold in prostate cancer, and 2 to 6-fold in breast cancer compared to lead compound 1).
# MDA-MB-435 tumors = test: MDA-MB-435 xenograft model; format: in vivo, nude mice; settings: 75 mg/kg i.p. 3 × a week
# Protocol: Compound 4 was selected for further evaluation in an in vivo xenograft mouse study in light of its nanomolar potency in vitro in the NCI-60 cancer cell line panel and its potent microtubule depolymerization activity. The in vivo effects of 4 were tested in the MDA-MB-435 xenograft model (Figure 5).
# MDA-MB-435 tumor fragments were implanted s.c. into the flanks of female nude mice. […] Compound 4 was dissolved in a 50:50 Cremophor EL/DMSO mixture and further dissolved in PBS for a final concentration of 10:10:80 Cremophor EL:DMSO:PBS (v/v). […] Tumor volumes and mouse weights were measured 2–3 times a week. A two-way ANOVA with Dunnett’s post-hoc tests including all treatment groups in the trial was used to determine significant differences in tumor volumes between drug-treated and untreated control groups on each measurement day. These animal studies were performed at the University of Texas Health Science Center in San Antonio in compliance with an approved Institutional Animal Care and Use protocol.
# MDA-MB-435 tumors were implanted into the flanks of nude mice and allowed to grow until they reached a volume of ~200 mm^3. […] Tumor volumes and mouse weights were measured 2–3 times a week. Statistical significance was evaluated by two-way ANOVA (time vs. drug) with Dunnett’s post-hoc tests. A statistically significant difference in tumor volume was detected on day 14 between mice treated with 4 (* p = 0.0384) and untreated control tumors.
# CCRF-CEM = test: NCI-60 growth inhibition, CCRF-CEM; format: cell-based; settings: Homo sapiens, Leukemia
# Description: as §1
# A549/ATCC = test: NCI-60 growth inhibition, A549/ATCC; format: cell-based; settings: Homo sapiens, NSCLC
# Description: as §1
# HOP-92 = test: NCI-60 growth inhibition, HOP-92; format: cell-based; settings: Homo sapiens, NSCLC
# Description: as §1
# HCC-2998 = test: NCI-60 growth inhibition, HCC-2998; format: cell-based; settings: Homo sapiens, Colon Cancer
# Description: as §1
# SF-268 = test: NCI-60 growth inhibition, SF-268; format: cell-based; settings: Homo sapiens, CNS Cancer
# Description: as §1
# SF-539 = test: NCI-60 growth inhibition, SF-539; format: cell-based; settings: Homo sapiens, CNS Cancer
# Description: as §1
# LOX IMVI = test: NCI-60 growth inhibition, LOX IMVI; format: cell-based; settings: Homo sapiens, Melanoma
# Description: as §1
# MALME-3M = test: NCI-60 growth inhibition, MALME-3M; format: cell-based; settings: Homo sapiens, Melanoma
# Description: as §1
# M14 = test: NCI-60 growth inhibition, M14; format: cell-based; settings: Homo sapiens, Melanoma
# Description: as §1
# UACC-62 = test: NCI-60 growth inhibition, UACC-62; format: cell-based; settings: Homo sapiens, Melanoma
# Description: as §1
# OVCAR-4 = test: NCI-60 growth inhibition, OVCAR-4; format: cell-based; settings: Homo sapiens, Ovarian Cancer
# Description: as §1
# OVCAR-5 = test: NCI-60 growth inhibition, OVCAR-5; format: cell-based; settings: Homo sapiens, Ovarian Cancer
# Description: as §1
# NCI/ADR-RES = test: NCI-60 growth inhibition, NCI/ADR-RES; format: cell-based; settings: Homo sapiens, Ovarian Cancer
# Description: as §1
compound,measurement,setting,value
"COc1ccc(N(C)c2nc(N)nc3sc4c(c23)CCCC4)cc1 [Compound 4, N4-(4-methoxyphenyl)-N4-methyl-5,6,7,8-tetrahydrobenzo[4,5]thieno[2,3-d]pyrimidine-2,4-diamine]",IC50,SK-OV-3 cells,11.8 ± 1.1 nM
same,GI50,[1],~10 nM
same,Antitumor effects on MDA-MB-435 tumor volume vs control,MDA-MB-435 tumors; day 14,statistically significant antitumor effects
same,Weight loss,MDA-MB-435 tumors; nude mice,moderate weight loss
same,GI50,CCRF-CEM,7.12 nM
same,GI50,A549/ATCC,12 nM
same,GI50,HOP-92,14.1 nM
same,GI50,HCC-2998,11.8 nM
same,GI50,SF-268,15.9 nM
same,GI50,SF-539,7.93 nM
same,GI50,LOX IMVI,10.1 nM
same,GI50,MALME-3M,12.2 nM
same,GI50,M14,4.32 nM
same,GI50,UACC-62,14.9 nM
same,GI50,OVCAR-4,9.98 nM
same,GI50,OVCAR-5,10.8 nM
same,GI50,NCI/ADR-RES,6.19 nM
